Experimental data as given in patent US20260083865A1, “PROSTATE SPECIFIC MEMBRANE ANTIGEN (PSMA) LIGANDS AND USE THEREOF” (priority 2022, published 2026).
Numbered stars: 1 amine (or outer) side, 2 acyl side, 3 side chain; on linkers, the order of the positions; unused ones are H or OH. Bridge positions count the residues as written; N and C are the ends. Square brackets hold non-standard residues; d marks the D form. Side chains are listed from the residue outwards. Peptide text beside a SMILES is read from it. * marks the point of attachment. TtdsdLys(DOTA)NH2 = NC(=O)[C@@H](CCCCNC(=O)CN1CCN(CC(=O)O)CCN(CC(=O)O)CCN(CC(=O)O)CC1)NC(=O)CCC(=O)NCCCOCCOCCOCCCN*; Acetyl(1-DOTA-4-piperidyl) = O=C(O)CN1CCN(CC(=O)O)CCN(CC(=O)N2CCC(CC(=O)*)CC2)CCN(CC(=O)O)CC1; X3 = O=C(O)CN1CCN(CC(=O)O)CCN(CC(=O)NCCCOCCOCCOCCCN*)CCN(CC(=O)O)CC1; DOTA = O=C(O)CN1CCN(CC(=O)O)CCN(CC(=O)*)CCN(CC(=O)O)CC1; Trp(5-Cl) = N[C@@H](Cc1c[nH]c2ccc(Cl)cc12)C(=O)O; Phe(3-CF3) = N[C@@H](Cc1cccc(C(F)(F)F)c1)C(=O)O; Pro(trans-4-F) = O=C(O)[C@@H]1C[C@@H](F)CN1; Oic = O=C(O)[C@@H]1C[C@@H]2CCCC[C@@H]2N1; Phe(4-Cl) = N[C@@H](Cc1ccc(Cl)cc1)C(=O)O; Phe(4-F) = N[C@@H](Cc1ccc(F)cc1)C(=O)O; Arg(Me) = CNC(=N)NCCC[C@H](N)C(=O)O; Ethylenediamine = C(CN[*:2])N[*:1]; X1 = O=C(CC1CCN([*:1])CC1)[*:2]; Cit = NC(=O)NCCC[C@H](N)C(=O)O; Lys(Me) = CNCCCC[C@H](N)C(=O)O; Suc = O=C(CCC(=O)[*:2])[*:1]; Tle = CC(C)(C)[C@H](N)C(=O)O; Hexanoyl = CCCCCC(=O)*; AEEA = NCCOCCOCC(=O)O; Aib = CC(C)(N)C(=O)O

Legend:
[1] = target: T1, PSMA-expressing C4-2 cells (Homo sapiens, UniProt Q04609); assay: FACS binding assay (competition with 50 nM PSM-0183); settings: pIC50 category of FACS binding, C4-2 cells; read-out: pIC50 [C4-2] CAT (converted)
T1 construct: PSMA-expressing C4-2 cells (ATCC, Cat. No. CRL-3314) were cultured in RPMI-1640; host or cells: C4-2 cells
T1 sequence (Q04609 whole entry): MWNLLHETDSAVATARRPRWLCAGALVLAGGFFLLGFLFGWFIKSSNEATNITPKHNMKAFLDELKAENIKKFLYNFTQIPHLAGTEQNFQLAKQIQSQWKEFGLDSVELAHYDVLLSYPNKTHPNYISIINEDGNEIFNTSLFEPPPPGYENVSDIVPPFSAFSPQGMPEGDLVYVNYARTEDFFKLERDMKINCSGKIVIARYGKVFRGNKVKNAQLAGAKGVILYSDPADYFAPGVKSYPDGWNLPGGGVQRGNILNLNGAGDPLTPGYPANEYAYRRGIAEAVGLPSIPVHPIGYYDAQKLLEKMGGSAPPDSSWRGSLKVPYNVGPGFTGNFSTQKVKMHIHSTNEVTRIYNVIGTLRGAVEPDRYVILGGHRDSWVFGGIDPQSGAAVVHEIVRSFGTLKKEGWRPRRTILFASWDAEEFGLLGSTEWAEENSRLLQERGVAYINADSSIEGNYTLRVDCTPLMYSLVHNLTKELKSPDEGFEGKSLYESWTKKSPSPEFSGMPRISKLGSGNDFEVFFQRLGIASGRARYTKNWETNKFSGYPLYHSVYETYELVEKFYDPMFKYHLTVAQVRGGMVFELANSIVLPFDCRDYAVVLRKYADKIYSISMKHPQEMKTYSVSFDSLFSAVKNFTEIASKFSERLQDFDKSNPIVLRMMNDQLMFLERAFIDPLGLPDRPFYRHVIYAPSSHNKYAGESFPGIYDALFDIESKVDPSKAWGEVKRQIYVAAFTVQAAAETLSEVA
In short: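 Competition format: fluorescent tracer PSM-0183 (50 nM) displaced from PSMA on C4-2 cells by a test compound titration over 1 h at 4 °C. Bound tracer was quantified as flow-cytometric AF488 median fluorescence after washing. Four-parameter logistic fits of MFI data gave IC50 and pIC50.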

[2] = target: T2, Fc-fusion protein of human PSMA (hPSMA-Fc) (Homo sapiens, UniProt Q04609); assay: Surface plasmon resonance assay (Biacore T200, single cycle kinetic); type: binding; settings: pKD category for PSMA SPR activity assay, hPSMA-Fc, 25° C.; read-out: pKD CAT (converted)
T2 construct: purchased Acro Biosystems PSA-H5264
T2 sequence (Q04609 44-750 limits assumed): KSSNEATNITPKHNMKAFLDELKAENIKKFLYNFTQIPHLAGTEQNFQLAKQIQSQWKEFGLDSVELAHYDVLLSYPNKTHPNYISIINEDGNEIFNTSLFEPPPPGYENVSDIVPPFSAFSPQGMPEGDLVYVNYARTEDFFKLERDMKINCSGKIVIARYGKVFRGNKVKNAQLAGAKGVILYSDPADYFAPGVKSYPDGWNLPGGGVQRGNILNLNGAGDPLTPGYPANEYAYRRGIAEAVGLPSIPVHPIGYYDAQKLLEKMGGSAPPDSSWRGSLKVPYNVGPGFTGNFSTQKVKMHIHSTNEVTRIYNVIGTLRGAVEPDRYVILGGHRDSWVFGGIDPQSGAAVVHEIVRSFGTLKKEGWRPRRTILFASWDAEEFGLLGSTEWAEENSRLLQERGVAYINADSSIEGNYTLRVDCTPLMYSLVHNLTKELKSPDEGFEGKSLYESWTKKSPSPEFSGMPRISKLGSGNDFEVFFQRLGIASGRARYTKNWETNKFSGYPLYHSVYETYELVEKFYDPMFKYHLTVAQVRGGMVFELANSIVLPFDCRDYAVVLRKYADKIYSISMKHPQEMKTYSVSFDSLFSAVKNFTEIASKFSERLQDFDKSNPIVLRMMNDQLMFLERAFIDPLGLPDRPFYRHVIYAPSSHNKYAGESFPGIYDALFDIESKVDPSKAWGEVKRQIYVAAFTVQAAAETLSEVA
In short: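 KD, expressed as pKD, came from 1:1 Langmuir fits of reference- and buffer-blank-subtracted SPR data. The runs were single-cycle kinetics at 25° C in HBST/0.1% DMSO over human PSMA-Fc, captured to ~1000 RU on a peptide-coated CM5 surface and regenerated with 10 mM glycine pH 1.5.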

| SMILES | IC50 [1] [nM] | Kd [2] [nM] |
| --- | --- | --- |
| CC(=O)N[C@H](C(=O)NC(C)(C)C(=O)N[C@@H](Cc1ccccc1)C(=O)N[C@H]1CSSC[C@@H](C(=O)N[C@H](C(=O)N[C@H](C(=O)N[C@@H](CC(=O)O)C(N)=O)[C@@H](C)O)C(C)(C)C)NC(=O)[C@H](CC(N)=O)NC(=O)[C@@H]2C[C@@H](F)CN2C(=O)[C@H](CCCNC(=N)N)NC(=O)[C@H](CCCCN)NC1=O)[C@@H](C)O [PSM-0392, Ac-Thr-Aib-Phe-[Cys-Lys-Arg-4Tfp-Asn-Cys]-Tle-Thr-Asp-NH2] (Ac-T[Aib]FCKR[Pro(trans-4-F)]NC[Tle]TD-NH2; disulfide 4-9) | < 200 | < 12.6 |
| CC(=O)N[C@H](C(=O)NC(C)(C)C(=O)N[C@@H](Cc1ccc(Cl)cc1)C(=O)N[C@H]1CSSC[C@@H](C(=O)N[C@H](C(=O)NCCN)C(C)(C)C)NC(=O)[C@H](CC(N)=O)NC(=O)C(C)(C)NC(=O)[C@H](CCCNC(=N)N)NC(=O)[C@H](CCCCN)NC1=O)[C@@H](C)O [PSM-0393, Ac-Thr-Aib-Pcf-[Cys-Lys-Arg-Aib-Asn-Cys]-Tle-en] (Ac-T[Aib][Phe(4-Cl)]CKR[Aib]NC[Tle]-Ethylenediamine; disulfide 4-9) | < 200 | < 12.6 |
| CC(=O)N[C@H](C(=O)NC(C)(C)C(=O)N[C@@H](Cc1ccccc1)C(=O)N[C@H]1CSSC[C@@H](C(=O)NC(C)(C)C(=O)N[C@H](C(N)=O)[C@@H](C)O)NC(=O)[C@H](CC(N)=O)NC(=O)C(C)(C)NC(=O)[C@H](CCCNC(=N)N)NC(=O)[C@H](CCCCN)NC1=O)[C@@H](C)O [PSM-0394, Ac-Thr-Aib-Phe-[Cys-Lys-Arg-Aib-Asn-Cys]-Aib-Thr-NH2] (Ac-T[Aib]FCKR[Aib]NC[Aib]T-NH2; disulfide 4-9) | 200 to 1260 | 12.6 to 126 |
| CNCCCC[C@@H]1NC(=O)[C@@H](NC(=O)[C@H](Cc2ccc(F)cc2)NC(=O)C(C)(C)NC(=O)[C@@H](NC(=O)CC2CCN(C(=O)CN3CCN(CC(=O)O)CCN(CC(=O)O)CCN(CC(=O)O)CC3)CC2)[C@@H](C)O)CSSC[C@@H](C(=O)N[C@H](C(N)=O)C(C)(C)C)NC(=O)[C@H](CC(N)=O)NC(=O)C(C)(C)NC(=O)[C@H](CCCNC(=N)NC)NC1=O [PSM-0395, DOTA-Cmp-Thr-Aib-Pff-[Cys-Lys(Me)-Arg(Me)-Aib-Asn-Cys]-Tle-NH2] ({DOTA}-[X1]T[Aib][Phe(4-F)]C[Lys(Me)][Arg(Me)][Aib]NC[Tle]-NH2; disulfide 5-10) | < 200 | < 12.6 |
| CNCCCC[C@@H]1NC(=O)[C@@H](NC(=O)[C@H](Cc2cccc(C(F)(F)F)c2)NC(=O)C(C)(C)NC(=O)[C@@H](NC(=O)CC2CCN(C(=O)CN3CCN(CC(=O)O)CCN(CC(=O)O)CCN(CC(=O)O)CC3)CC2)[C@@H](C)O)CSSC[C@@H](C(=O)N[C@H](C(N)=O)C(C)(C)C)NC(=O)[C@H](CC(N)=O)NC(=O)C(C)(C)NC(=O)[C@H](CCCNC(=N)NC)NC1=O [PSM-0396, DOTA-Cmp-Thr-Aib-Mtf-[Cys-Lys(Me)-Arg(Me)-Aib-Asn-Cys]-Tle-NH2] ({DOTA}-[X1]T[Aib][Phe(3-CF3)]C[Lys(Me)][Arg(Me)][Aib]NC[Tle]-NH2; disulfide 5-10) | < 200 | < 12.6 |
| CC(=O)N[C@H](C(=O)NC(C)(C)C(=O)N[C@@H](Cc1ccccc1)C(=O)N[C@H]1CSSC[C@@H](C(=O)N[C@H](C(=O)N[C@H](C(=O)N[C@@H](CC(=O)O)C(N)=O)[C@@H](C)O)C(C)(C)C)NC(=O)[C@H](CC(N)=O)NC(=O)[C@H](CCCCNC(=O)CN2CCN(CC(=O)O)CCN(CC(=O)O)CCN(CC(=O)O)CC2)NC(=O)[C@H](CCCNC(=N)N)NC(=O)[C@H](CCCCN)NC1=O)[C@@H](C)O [PSM-0397, Ac-Thr-Aib-Phe-[Cys-Lys-Arg-Lys(DOTA)-Asn-Cys]-Tle-Thr-Asp-NH2] (Ac-T[Aib]FCKRK(DOTA)NC[Tle]TD-NH2; disulfide 4-9) | < 200 | 12.6 to 126 |
| C[C@@H](O)[C@H](NC(=O)CCC(=O)NCCCOCCOCCOCCCNC(=O)CN1CCN(CC(=O)O)CCN(CC(=O)O)CCN(CC(=O)O)CC1)C(=O)NC(C)(C)C(=O)N[C@@H](Cc1ccccc1)C(=O)N[C@H]1CSSC[C@@H](C(=O)N[C@H](C(=O)N[C@H](C(=O)N[C@@H](CC(=O)O)C(N)=O)[C@@H](C)O)C(C)(C)C)NC(=O)[C@H](CC(N)=O)NC(=O)C(C)(C)NC(=O)[C@H](CCCNC(=N)N)NC(=O)[C@H](CCCCN)NC1=O [PSM-0398, DOTA-Ttds-Thr-Aib-Phe-[Cys-Lys-Arg-Aib-Asn-Cys]-Tle-Thr-Asp-NH2] ({X3-Suc}-T[Aib]FCKR[Aib]NC[Tle]TD-NH2; disulfide 4-9) | < 200 | < 12.6 |
| CCCCCC(=O)N[C@H](C(=O)NC(C)(C)C(=O)N[C@@H](Cc1ccc(Cl)cc1)C(=O)N[C@H]1CSSC[C@@H](C(=O)N[C@H](C(=O)N[C@H](C(=O)N[C@H](CCCCNC(=O)CC2CCN(C(=O)CN3CCN(CC(=O)O)CCN(CC(=O)O)CCN(CC(=O)O)CC3)CC2)C(N)=O)[C@@H](C)O)C(C)(C)C)NC(=O)[C@H](CC(N)=O)NC(=O)C(C)(C)NC(=O)[C@H](CCCNC(=N)N)NC(=O)[C@H](CCCCN)NC1=O)[C@@H](C)O [PSM-0400, Hex-Thr-Aib-Pcf-[Cys-Lys-Arg-Aib-Asn-Cys]-Tle-Thr-lys(DOTA-Cmp)-NH2] (Hexanoyl-T[Aib][Phe(4-Cl)]CKR[Aib]NC[Tle]T[dK](Acetyl(1-DOTA-4-piperidyl))-NH2; disulfide 4-9) | < 200 | < 12.6 |
| CC(=O)N[C@H](C(=O)NC(C)(C)C(=O)N[C@@H](Cc1ccccc1)C(=O)N[C@H]1CSSC[C@@H](C(=O)N[C@H](C(=O)N[C@H](C(N)=O)[C@@H](C)O)C(C)(C)C)NC(=O)[C@H](CC(N)=O)NC(=O)[C@H](CCCCNC(=O)COCCOCCNC(=O)CN2CCN(CC(=O)O)CCN(CC(=O)O)CCN(CC(=O)O)CC2)NC(=O)[C@H](CCCNC(=N)N)NC(=O)[C@H](CCCCN)NC1=O)[C@@H](C)O [PSM-0401, Ac-Thr-Aib-Phe-[Cys-Lys-Arg-Lys(DOTA-020c)-Asn-Cys]-Tle-Thr-NH2] (Ac-T[Aib]FCKRK([AEEA-DOTA])NC[Tle]T-NH2; disulfide 4-9) | < 200 | < 12.6 |
| CC(=O)N[C@H](C(=O)NC(C)(C)C(=O)N[C@@H](Cc1ccccc1)C(=O)N[C@H]1CSSC[C@@H](C(=O)N[C@H](C(=O)N[C@H](C(N)=O)[C@@H](C)O)C(C)(C)C)NC(=O)[C@@H](CC(N)=O)NC(=O)C(C)(C)NC(=O)[C@H](CCCNC(=N)N)NC(=O)[C@H](CCCCN)NC1=O)[C@@H](C)O [PSM-0402, Ac-Thr-Aib-Phe-[Cys-Lys-Arg-Aib-asn-Cys]-Tle-Thr-NH2] (Ac-T[Aib]FCKR[Aib][dN]C[Tle]T-NH2; disulfide 4-9) | < 200 | < 12.6 |
| CC(=O)N[C@H](C(=O)NC(C)(C)C(=O)N[C@@H](Cc1ccccc1)C(=O)N[C@H]1CSSC[C@@H](C(=O)N[C@H](C(=O)N[C@H](C(=O)N[C@@H](CC(=O)O)C(N)=O)[C@@H](C)O)C(C)(C)C)NC(=O)[C@H](CC(N)=O)NC(=O)[C@@H]2C[C@@H]3CCCC[C@@H]3N2C(=O)[C@H](CCCNC(=N)N)NC(=O)[C@H](CCCCN)NC1=O)[C@@H](C)O [PSM-0403, Ac-Thr-Aib-Phe-[Cys-Lys-Arg-Oic-Asn-Cys]-Tle-Thr-Asp-NH2] (Ac-T[Aib]FCKR[Oic]NC[Tle]TD-NH2; disulfide 4-9) | < 200 | < 12.6 |
| CC(=O)NC(C)(C)C(=O)N[C@@H](Cc1ccc(Cl)cc1)C(=O)N[C@H]1CSSC[C@@H](C(=O)N[C@H](C(=O)N[C@H](C(=O)N[C@H](CCCCNC(=O)CN2CCN(CC(=O)O)CCN(CC(=O)O)CCN(CC(=O)O)CC2)C(N)=O)[C@@H](C)O)C(C)(C)C)NC(=O)[C@H](CC(N)=O)NC(=O)C(C)(C)NC(=O)[C@H](CCCNC(=N)N)NC(=O)[C@H](CCCCN)NC1=O [PSM-0404, Ac-Aib-Pcf-[Cys-Lys-Arg-Aib-Asn-Cys]-Tle-Thr-lys(DOTA)-NH2] (Ac-[Aib][Phe(4-Cl)]CKR[Aib]NC[Tle]T[dK](DOTA)-NH2; disulfide 3-8) | < 200 | < 12.6 |
| CCCCCC(=O)N[C@H](C(=O)N[C@@H](C)C(=O)N[C@@H](Cc1ccccc1)C(=O)N[C@H]1CSSC[C@@H](C(=O)N[C@@H](CC(C)C)C(=O)N[C@H](C(=O)N[C@@H](CC(=O)O)C(=O)NCCCOCCOCCOCCCNC(=O)CCC(=O)N[C@H](CCCCNC(=O)CN2CCN(CC(=O)O)CCN(CC(=O)O)CCN(CC(=O)O)CC2)C(N)=O)[C@@H](C)O)NC(=O)[C@H](CC(N)=O)NC(=O)[C@H](C)NC(=O)[C@H](CCCNC(=N)N)NC(=O)[C@H](CCCCN)NC1=O)[C@@H](C)O [PSM-0405, Hex-Thr-Ala-Phe-[Cys-Lys-Arg-Ala-Asn-Cys]-Leu-Thr-Asp-Ttds-lys(DOTA)-NH2] (Hexanoyl-TAFCKRANCLTD-{TtdsdLys(DOTA)NH2}; disulfide 4-9) | < 200 | 12.6 to 126 |
| C[C@@H](O)[C@H](NC(=O)[C@@H](NC(=O)[C@@H]1CSSC[C@H](NC(=O)[C@H](Cc2c[nH]c3ccc(Cl)cc23)NC(=O)C(C)(C)NC(=O)[C@@H](NC(=O)CC2CCN(C(=O)CN3CCN(CC(=O)O)CCN(CC(=O)O)CCN(CC(=O)O)CC3)CC2)[C@@H](C)O)C(=O)N[C@@H](CCCCN)C(=O)N[C@@H](CCCNC(N)=O)C(=O)NC(C)(C)C(=O)N[C@@H](CC(N)=O)C(=O)N1)C(C)(C)C)C(N)=O [PSM-0406, DOTA-Cmp-Thr-Aib-5Clw-[Cys-Lys-Cit-Aib-Asn-Cys]-Tle-Thr-NH2] ({DOTA}-[X1]T[Aib][Trp(5-Cl)]CK[Cit][Aib]NC[Tle]T-NH2; disulfide 5-10) | 1260 to 3160 | > 501 |
